Measured values taken from US20250064941A1, “SIGLEC LIGANDS, CONJUGATES, AND METHODS OF USE THEREOF” (Osprey Biopharmaceuticals, Inc., priority 2023, published 2025).

Assays:
[1] = target: T1, human Siglec-2/CD22 protein (Homo sapiens, UniProt P20273); assay: SPR binding affinity to human CD22; conditions: steady-state analysis
T1 construct: purchased Acro Biosystems SI2-H82E3
T1 sequence (P20273 20-847): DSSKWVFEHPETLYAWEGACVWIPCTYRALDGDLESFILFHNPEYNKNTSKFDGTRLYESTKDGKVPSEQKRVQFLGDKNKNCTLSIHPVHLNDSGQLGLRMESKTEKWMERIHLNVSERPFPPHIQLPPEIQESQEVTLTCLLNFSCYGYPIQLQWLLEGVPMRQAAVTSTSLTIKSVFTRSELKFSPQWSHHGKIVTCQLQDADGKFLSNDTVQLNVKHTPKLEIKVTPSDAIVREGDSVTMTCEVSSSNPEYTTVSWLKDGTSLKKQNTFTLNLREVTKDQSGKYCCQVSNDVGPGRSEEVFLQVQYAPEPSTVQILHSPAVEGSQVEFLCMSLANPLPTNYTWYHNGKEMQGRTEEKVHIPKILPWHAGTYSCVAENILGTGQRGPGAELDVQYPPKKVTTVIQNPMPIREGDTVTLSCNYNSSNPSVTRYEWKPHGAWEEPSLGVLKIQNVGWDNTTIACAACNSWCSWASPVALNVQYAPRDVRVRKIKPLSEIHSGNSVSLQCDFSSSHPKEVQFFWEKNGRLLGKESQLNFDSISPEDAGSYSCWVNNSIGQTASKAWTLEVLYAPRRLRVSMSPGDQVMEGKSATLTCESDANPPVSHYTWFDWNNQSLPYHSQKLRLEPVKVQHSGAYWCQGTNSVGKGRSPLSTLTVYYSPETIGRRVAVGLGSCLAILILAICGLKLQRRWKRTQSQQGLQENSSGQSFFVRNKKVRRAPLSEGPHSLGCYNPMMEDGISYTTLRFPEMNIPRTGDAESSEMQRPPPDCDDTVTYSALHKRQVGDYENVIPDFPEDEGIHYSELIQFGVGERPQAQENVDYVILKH
Method in brief: (§1)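 Biotinylated CD22 desialylated with SialoExo (4 h, 37° C) before capture on streptavidin chip. Running buffer 10 mM HEPES, 150 mM NaCl, 0.05% Tween-20, pH 7.5, 1% DMSO, with DMSO solvent correction; 120 s dissociation. Compound affinities from steady-state analysis.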

[2] = target: T2, mouse Siglec-2-Fc-Avi (CD22) (Mus musculus, UniProt P35329); assay: SPR binding affinity to mouse CD22; conditions: steady-state analysis
T2 construct: made in house
T2 sequence (P35329 22-708 limits assumed): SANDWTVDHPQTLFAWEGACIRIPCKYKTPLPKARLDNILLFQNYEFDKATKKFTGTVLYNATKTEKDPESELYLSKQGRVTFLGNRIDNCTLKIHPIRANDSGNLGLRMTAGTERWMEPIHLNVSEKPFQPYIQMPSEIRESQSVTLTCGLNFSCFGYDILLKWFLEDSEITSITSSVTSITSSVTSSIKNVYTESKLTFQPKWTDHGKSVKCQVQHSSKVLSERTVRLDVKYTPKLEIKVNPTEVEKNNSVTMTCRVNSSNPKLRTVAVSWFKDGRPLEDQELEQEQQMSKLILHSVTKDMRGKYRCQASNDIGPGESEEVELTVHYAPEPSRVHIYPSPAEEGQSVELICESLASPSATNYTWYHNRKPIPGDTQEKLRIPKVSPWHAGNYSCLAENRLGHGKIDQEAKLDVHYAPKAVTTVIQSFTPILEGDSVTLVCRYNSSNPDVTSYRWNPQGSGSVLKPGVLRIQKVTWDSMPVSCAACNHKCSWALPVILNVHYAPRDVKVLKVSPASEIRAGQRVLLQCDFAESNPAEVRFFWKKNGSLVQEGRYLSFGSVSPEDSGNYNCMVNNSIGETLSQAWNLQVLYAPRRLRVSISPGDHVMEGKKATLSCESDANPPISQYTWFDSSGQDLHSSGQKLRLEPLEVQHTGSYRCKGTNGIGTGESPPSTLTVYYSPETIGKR
Method in brief: as §1

cynomolgus Siglec-2/CD22 = cynomolgus Siglec-2/CD22 (Macaca fascicularis, UniProt A0A2K5WCZ6); assay: biochemical; assay type: binding; conditions: SPR, steady-state analysis; read-out: Affinity cyno CD22
Method in brief: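 SPR with desialylated (SialoExo, 4 h, 37° C.) cynomolgus CD22 amine-coupled to a CM5 chip. Running buffer 10 mM HEPES, 150 mM NaCl, 0.05% Tween-20, pH 7.5, 1% DMSO, with solvent correction; 120 s dissociation. Affinities from steady-state analysis.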

cynomolgus Siglec-2/CD22, sequence (A0A2K5WCZ6 entry or part of it): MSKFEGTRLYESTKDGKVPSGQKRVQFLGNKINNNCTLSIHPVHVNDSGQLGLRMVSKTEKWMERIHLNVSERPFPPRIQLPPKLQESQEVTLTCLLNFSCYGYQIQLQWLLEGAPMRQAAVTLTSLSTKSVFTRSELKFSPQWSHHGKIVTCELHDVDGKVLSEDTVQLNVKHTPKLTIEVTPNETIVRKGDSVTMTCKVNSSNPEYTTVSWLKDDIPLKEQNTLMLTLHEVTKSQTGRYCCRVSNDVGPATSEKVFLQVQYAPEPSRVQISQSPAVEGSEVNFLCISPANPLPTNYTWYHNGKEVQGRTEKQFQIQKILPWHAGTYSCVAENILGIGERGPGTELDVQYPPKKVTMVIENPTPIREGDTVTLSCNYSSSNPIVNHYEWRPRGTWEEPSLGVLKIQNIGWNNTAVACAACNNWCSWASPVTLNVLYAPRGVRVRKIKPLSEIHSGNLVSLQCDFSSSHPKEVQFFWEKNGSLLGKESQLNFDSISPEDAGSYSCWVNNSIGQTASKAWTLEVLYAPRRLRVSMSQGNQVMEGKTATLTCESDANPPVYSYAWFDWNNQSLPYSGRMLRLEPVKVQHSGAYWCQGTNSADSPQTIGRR

C#CCOCCOCCO[C@@]1(C(=O)O)O[C@@H]([C@H](O)[C@H](O)CNC(=O)Cc2ccc(-c3ccccc3)cc2)[C@H](NC(=O)CO)[C@@H](NC(=O)c2cccc(OC)c2)[C@@H]1O [Compound 36, (2R,3S,4R,5R,6R)-6-((1R,2R)-3-(2-([1,1′-biphenyl]-4-yl)acetamido)-1,2-dihydroxypropyl)-3-hydroxy-5-(2-hydroxyacetamido)-4-(3-methoxybenzamido)-2-(2-(2-(prop-2-yn-1-yloxy)ethoxy)ethoxy)tetrahydro-2H-pyran-2-carboxylic acid] gave a Kd [1] of under 1 µM, a Kd [2] of 1 to 10 µM and a Kd (cynomolgus Siglec-2/CD22) of 1 to 10 µM.
Work on C#CCCC(=O)NCCCCCCO[C@]1(C(=O)O)C[C@H](O)[C@@H](NC(=O)CO)[C@H]([C@H](O)[C@H](O)CNC(=O)Cc2ccc(Cl)cc2)O1 [Compound 217, (2R,4S,5R,6R)-6-((1R,2R)-3-(2-(4-chlorophenyl)acetamido)-1,2-dihydroxypropyl)-4-hydroxy-5-(2-hydroxyacetamido)-2-((6-(pent-4-ynamido)hexyl)oxy)tetrahydro-2H-pyran-2-carboxylic acid] yielded a Kd [1] of under 1 µM, a Kd [2] of 1 to 10 µM and a Kd (cynomolgus Siglec-2/CD22) of under 1 µM.
C#CCCCCCCO[C@]1(C(=O)O)C[C@H](O)[C@@H](NC(=O)CO)[C@H]([C@H](O)[C@H](O)CNC(=O)Cc2ccc(Cl)cc2)O1 [Compound 110, (2R,4S,5R,6R)-6-((1R,2R)-3-(2-(4-chlorophenyl)acetamido)-1,2-dihydroxypropyl)-4-hydroxy-5-(2-hydroxyacetamido)-2-(oct-7-yn-1-yloxy)tetrahydro-2H-pyran-2-carboxylic acid] showed a Kd [1] of under 1 µM, a Kd [2] of under 1 µM and a Kd (cynomolgus Siglec-2/CD22) of under 1 µM.
In the case of C#CCCOc1ccc(CO[C@]2(C(=O)O)C[C@H](O)[C@@H](NC(=O)CO)[C@H]([C@H](O)[C@H](O)CNC(=O)Cc3cccc(-c4ccc(O)cc4)c3)O2)cc1 [Compound 44, (2R,4S,5R,6R)-2-((4-(but-3-yn-1-yloxy)benzyl)oxy)-6-((1R,2R)-1,2-dihydroxy-3-(2-(4′-hydroxy-[1,1′-biphenyl]-3-yl)acetamido)propyl)-4-hydroxy-5-(2-hydroxyacetamido)tetrahydro-2H-pyran-2-carboxylic acid], the Kd [1] is reported as under 1 µM, the Kd [2] is reported as 1 to 10 µM and the Kd (cynomolgus Siglec-2/CD22) is reported as 1 to 10 µM.
C#CCOCCOCCO[C@]1(C(=O)O)C[C@H](O)[C@@H](NC(=O)CO)[C@H]([C@H](O)[C@H](O)CNC(=O)C[C@H]2CC[C@H](O)CC2)O1 [Compound 14, (2R,4S,5R,6R)-6-((1R,2R)-1,2-dihydroxy-3-(2-((1r,4R)-4-hydroxycyclohexyl)acetamido)propyl)-4-hydroxy-5-(2-hydroxyacetamido)-2-(2-(2-(prop-2-yn-1-yloxy)ethoxy)ethoxy)tetrahydro-2H-pyran-2-carboxylic acid] gave a Kd [1] of over 10 µM, a Kd [2] of 1 to 10 µM and a Kd (cynomolgus Siglec-2/CD22) of over 10 µM.
For C#CCN(CC(=O)O)C(=O)CCCO[C@]1(C(=O)O)C[C@H](O)[C@@H](NC(=O)CO)[C@H]([C@H](O)[C@H](O)CNC(=O)Cc2ccc(Cl)cc2)O1 [Compound 101, (2R,4S,5R,6R)-2-(4-((carboxymethyl)(prop-2-yn-1-yl)amino)-4-oxobutoxy)-6-((1R,2R)-3-(2-(4-chlorophenyl)acetamido)-1,2-dihydroxypropyl)-4-hydroxy-5-(2-hydroxyacetamido)tetrahydro-2H-pyran-2-carboxylic acid], the Kd [1] was 1 to 10 µM, the Kd [2] was 1 to 10 µM and the Kd (cynomolgus Siglec-2/CD22) was 1 to 10 µM.
In the case of O=C(Cc1ccc(Cl)cc1)NC[C@@H](O)[C@@H](O)[C@@H]1O[C@@](OCCCCCCNC(=O)c2ccccc2)(C(=O)O)C[C@H](O)[C@H]1NC(=O)CO [Compound 108, (2R,4S,5R,6R)-2-((6-benzamidohexyl)oxy)-6-((1R,2R)-3-(2-(4-chlorophenyl)acetamido)-1,2-dihydroxypropyl)-4-hydroxy-5-(2-hydroxyacetamido)tetrahydro-2H-pyran-2-carboxylic acid], the Kd [1] is reported as under 1 µM, the Kd [2] is reported as under 1 µM and the Kd (cynomolgus Siglec-2/CD22) is reported as under 1 µM.
With C#CCCCCCCCCO[C@]1(C(=O)O)C[C@H](O)[C@@H](NC(=O)CO)[C@H]([C@H](O)[C@H](O)CNC(=O)Cc2ccc(Cl)cc2)O1 [Compound 109, (2R,4S,5R,6R)-6-((1R,2R)-3-(2-(4-chlorophenyl)acetamido)-1,2-dihydroxypropyl)-2-(dec-9-yn-1-yloxy)-4-hydroxy-5-(2-hydroxyacetamido)tetrahydro-2H-pyran-2-carboxylic acid] the Kd [1] was under 1 µM, the Kd [2] was under 1 µM and the Kd (cynomolgus Siglec-2/CD22) was under 1 µM.
C#CCOCCNC(=O)NCCCCCCO[C@]1(C(=O)O)C[C@H](O)[C@@H](NC(=O)CO)[C@H]([C@H](O)[C@H](O)CNC(=O)Cc2ccc(Cl)cc2)O1 [Compound 218, (2R,4S,5R,6R)-6-((1R,2R)-3-(2-(4-chlorophenyl)acetamido)-1,2-dihydroxypropyl)-4-hydroxy-5-(2-hydroxyacetamido)-2-((6-(3-(2-(prop-2-yn-1-yloxy)ethyl)ureido)hexyl)oxy)tetrahydro-2H-pyran-2-carboxylic acid] was tested, and the Kd [1] was under 1 µM, the Kd [2] was under 1 µM and the Kd (cynomolgus Siglec-2/CD22) was under 1 µM.
C#CCCOc1ccc(CO[C@]2(C(=O)O)C[C@H](O)[C@@H](NC(=O)CO)[C@H]([C@H](O)[C@H](O)CNC(=O)Cc3ccc(N4CCC(NC(C)=O)CC4)cc3)O2)cc1 [Compound 137, (2R,4S,5R,6R)-6-((1R,2R)-3-(2-(4-(4-acetamidopiperidin-1-yl)phenyl)acetamido)-1,2-dihydroxypropyl)-2-((4-(but-3-yn-1-yloxy)benzyl)oxy)-4-hydroxy-5-(2-hydroxyacetamido)tetrahydro-2H-pyran-2-carboxylic acid] showed a Kd [1] of over 10 µM, a Kd [2] of over 10 µM and a Kd (cynomolgus Siglec-2/CD22) of 1 to 10 µM.
CCCCCC[C@H](O)[C@]1(C(=O)O)C[C@H](O)[C@@H](NC(=O)CO)[C@H]([C@H](O)[C@H](O)CNC(=O)Cc2ccc(Cl)cc2)O1 [Compound 203, (2S,4S,5R,6R)-6-((1R,2R)-3-(2-(4-chlorophenyl)acetamido)-1,2-dihydroxypropyl)-4-hydroxy-5-(2-hydroxyacetamido)-2-((S)-1-hydroxyheptyl)tetrahydro-2H-pyran-2-carboxylic acid] was tested, and the Kd [1] was under 1 µM, the Kd [2] was 1 to 10 µM and the Kd (cynomolgus Siglec-2/CD22) was under 1 µM.
In the case of C#CCNC(=O)CCOCCOCCO[C@]1(c2nn[nH]n2)C[C@H](O)[C@@H](NC(=O)CO)[C@H]([C@H](O)[C@H](O)CNC(=O)Cc2ccc(Cl)cc2)O1 [Compound 226, 3-(2-(2-(((2R,4S,5R,6R)-6-((1R,2R)-3-(2-(4-chlorophenyl)acetamido)-1,2-dihydroxypropyl)-4-hydroxy-5-(2-hydroxyacetamido)-2-(2H-tetrazol-5-yl)tetrahydro-2H-pyran-2-yl)oxy)ethoxy)ethoxy)-N-(prop-2-yn-1-yl)propanamide], the Kd [1] is reported as over 10 µM, the Kd [2] is reported as over 10 µM and the Kd (cynomolgus Siglec-2/CD22) is reported as over 10 µM.
C#CCOCCOCCO[C@]1(C(=O)O)C[C@H](O)[C@@H](NC(=O)CO)[C@H]([C@H](O)[C@H](O)CNC(=O)CC)O1 [Compound 15, (2R,4S,5R,6R)-6-((1R,2R)-1,2-dihydroxy-3-propionamidopropyl)-4-hydroxy-5-(2-hydroxyacetamido)-2-(2-(2-(prop-2-yn-1-yloxy)ethoxy)ethoxy)tetrahydro-2H-pyran-2-carboxylic acid] showed a Kd [1] of over 10 µM, a Kd [2] of over 10 µM and a Kd (cynomolgus Siglec-2/CD22) of over 10 µM.
